Consider five molecules from US10519105B2, “KCNQ2-5 channel activator” (ONO PHARMACEUTICAL CO., LTD., priority 2016, dated 2019).

The term IC20 denotes the concentration at which the effect reaches the 20% level. As usually defined, the solubility is how much of the substance goes into solution per volume. High values mean much dissolved substance, low ones little dissolved substance.

One series concerns the target T1, Human KCNQ2/3 channel (Homo sapiens, UniProt O43525+O43526).
T1 construct: expressed in transfected cells; host or cells: CHO-DHFR- cells
Put plainly: Opening action with respect to KCNQ2/3 channel by depolarization stimulation (thallium influx, FLIPR). It counts as cell-based. Conditions: concentration giving 50% of the maximum reaction of retigabine (10 μM); human KCNQ2/3 expressing CHO-DHFR- cells; read-out: KCNQ2/3 ECrtg50. On the procedure: Human KCNQ2/3 expression cells (CHO-DHFR− cells) were seeded in each well of a 384-well plate (collagen-coated, black, clear bottom) at 0.5×10^4 cells/50 μL per well and cultured using a MEM ALPHA medium (containing 10 vol % inactivated (56° C., 30 min) fetal bovine serum, 100 IU/mL penicillin, 100 μg/mL streptomycin, and 2 mM L-glutamine) at 37° C. in 5% CO2 for 18 to 24 hours. After the medium in the plate was removed, incubation (room temperature, 60 minutes, shading) was performed in a loading buffer (prepared by the method described in the manual of FluxOR Thallium Detection Kit (Invitrogen, F10016, F10017)). A KCNQ2/3 channel opening action (thallium influx into cells) by depolarization stimulation (5 mM potassium and 0.5 mM thallium) was measured by FLIPR TETRA (Molecular Devices). The compound of the present invention was treated 5 minutes before the depolarization stimulation, and the reaction induced by the depolarization stimulation was measured over time for 180 seconds. The channel opening action of the compound of the present invention was evaluated based on the change amount of the fluorescence intensity from the time before the depolarization stimulation to the time after the elapse of 180 seconds, and the concentration (ECrtg50) satisfying 50% of the fluorescence intensity change of a maximum reaction (in the treatment at 10 μM) of retigabine under the conditions of this experiment was calculated.

For series [1], the system named is bladder extracted from rat. Kind of series: Relaxing action on bladder extracted from rat (carbachol-induced contraction, Magnus tube). The following applies: rat bladder strip, carbachol 1 μM contraction; read-out: IC20 (percent change in tension -20%). On the procedure: Female Jcl:Wistar rats (CLEA Japan, Inc., body weight at use: 170 to 200 g) were anesthetized by intraperitoneal administration of about 40 mg/kg of pentobarbital (Somnopentyl, Schering Plough Animal Health Corporation), and killed by bloodletting. The bladder was extracted by abdominal incision and immediately thereafter immersed in ice-cooled Krebs buffer (Krebs Ringer bicarbonate buffer (Sigma-Aldrich Co. LLC) supplemented with sodium hydrogen carbonate (final concentration: 15 mM) and calcium chloride (final concentration: 2.5 mM)) saturated with a mixed gas (95% O2, 5% CO2).
The bladder body extracted from each rat was cut into an oblong strip shape (about 10×3 mm), whereby a specimen was prepared on ice. Immediately thereafter, the specimen was suspended in a Magnus tube filled with Krebs buffer (37° C.) bubbled with the mixed gas while applying a tension load of 500 mg thereto. Incidentally, the specimen was prepared within 24 hours after extracting the tissue.
After the elapse of one hour or more from the suspension of the specimen, 2.5 M KCl was added thereto to a final concentration of 100 mM, and the specimen in which a contraction reaction could be confirmed was used.
Carbachol (a contraction inducer) contraction was induced at a concentration of 1 μM. […] After the contraction reaction was stabilized, physiological saline or the compound of the present invention was added thereto to a final concentration of 1 nM, 10 nM, 100 nM, 1 μM, and […] in a cumulative manner from a low concentration.
The tension (mg) in the extracted bladder was used as an evaluation item. The tension was read using analysis software WAVE THERMO 1000. A percent change in tension after adding the compound of the present invention when the tension after adding the contraction inducer was taken as 0% was defined as a percent change in tension (%) and used as an evaluation index. The percent change in tension (%) is calculated according to the following formula. percent change in tension (%)={tension (mg) after adding compound of the present invention and the like−tension (mg) before adding contraction inducer}/{tension (mg) after adding contraction inducer−tension (mg) before adding contraction inducer}×100−100
The value at which the percent change in tension (%) was −20% was calculated as IC20 and used as an index of the relaxing action on the extracted bladder.

A short description of series [2]: Solubility test (DMSO precipitation method, Japanese Pharmacopoeia dissolution test second solution). The series is classed as physicochemical. The following applies: aqueous buffer, kinetic from dmso stock, JP dissolution test second solution pH 6.8, room temperature, quantification range 5 to 100 μM. As for the experimental part: A calibration curve solution was prepared at 0.1, 0.4, and 2 μM by diluting a test substance (a 10 mM DMSO solution) with acetonitrile and adding acetonitrile containing an internal standard substance (candesartan).
A sample solution was prepared as follows. 5 μL of the compound of the present invention (a 10 mM DMSO solution) was added to 495 μL of the Japanese Pharmacopoeia dissolution test second solution (pH: 6.8), followed by stirring at room temperature for 5 hours. Then, the solution was transferred to a solubility filter plate and subjected to suction filtration. The filtrate (20 μL) was diluted with acetonitrile, followed by adding acetonitrile containing an internal standard substance (candesartan).
Each of the calibration curve and sample solutions (5 μL) was injected into LC-MS/MS (Discovery Max, manufactured by Thermo Scientific, Inc.) and subjected to quantification (quantification range: 5 to 100 μM). The solubility in the case where the value equal to or less than the quantification range was obtained was defined as <5 μM, and the solubility in the case where the value equal to or more than the quantification range was obtained was defined as […].

The nature of series [3]: Stability in human liver microsomes. The series is classed as in vitro ADME. The following applies: human liver microsomes 0.5 mg/mL, NADPH, 5 μM, 37° C., 15 minutes. As for the experimental part: A test compound (a 10 mM DMSO solution, 5 μL) was diluted with a 50% aqueous acetonitrile solution (195 μL), whereby a 0.25 mM solution was prepared.
To a reaction vessel preheated to 37° C., 0.5 mg/mL of human liver microsomes (XenoTech, LLC) and 245 JLL of a 0.1 M phosphate buffer solution (pH 7.4) containing NADPH co-factor (BD Biosciences) were added, followed by preincubation for 5 minutes, and thereafter, the above-prepared test compound solution (5 μL) was added thereto to start a reaction (final concentration: 5 μM). Immediately after the start, a 20 μL portion was collected and added to 180 μL of acetonitrile containing an internal standard substance (warfarin) to stop the reaction. A 20 μL portion of this solution was stirred with 180 μL of a 50% aqueous acetonitrile solution on a plate equipped with a deproteinization filter, followed by suction filtration, and the filtrate was used as a standard sample.
After the above-prepared reaction solution was incubated at 37° C. for 15 minutes, a 20 μL portion of the solution was added to 180 μL of cooled acetonitrile (containing warfarin serving as an internal standard substance) to stop the reaction. A 20 μL portion of this solution was stirred with 180 μL of a 50% aqueous acetonitrile solution on a plate equipped with a deproteinization filter, followed by suction filtration, and the filtrate was used as a reaction sample.
A residual ratio (%) was calculated as follows. 1 μL of the sample solution was injected into LC-MS/MS (Discovery Max, manufactured by Thermo Scientific, Inc.), and a value obtained by dividing the peak area ratio of the reaction sample (peak area of test compound/peak area of internal standard substance) by the peak area ratio of the standard sample was multiplied by 100.

The next series deals with T2, hERG IKr current (Homo sapiens, UniProt Q12809).
T2 construct: expressed in transfected cells; host or cells: HEK293 cells
T2 sequence (Q12809 whole entry): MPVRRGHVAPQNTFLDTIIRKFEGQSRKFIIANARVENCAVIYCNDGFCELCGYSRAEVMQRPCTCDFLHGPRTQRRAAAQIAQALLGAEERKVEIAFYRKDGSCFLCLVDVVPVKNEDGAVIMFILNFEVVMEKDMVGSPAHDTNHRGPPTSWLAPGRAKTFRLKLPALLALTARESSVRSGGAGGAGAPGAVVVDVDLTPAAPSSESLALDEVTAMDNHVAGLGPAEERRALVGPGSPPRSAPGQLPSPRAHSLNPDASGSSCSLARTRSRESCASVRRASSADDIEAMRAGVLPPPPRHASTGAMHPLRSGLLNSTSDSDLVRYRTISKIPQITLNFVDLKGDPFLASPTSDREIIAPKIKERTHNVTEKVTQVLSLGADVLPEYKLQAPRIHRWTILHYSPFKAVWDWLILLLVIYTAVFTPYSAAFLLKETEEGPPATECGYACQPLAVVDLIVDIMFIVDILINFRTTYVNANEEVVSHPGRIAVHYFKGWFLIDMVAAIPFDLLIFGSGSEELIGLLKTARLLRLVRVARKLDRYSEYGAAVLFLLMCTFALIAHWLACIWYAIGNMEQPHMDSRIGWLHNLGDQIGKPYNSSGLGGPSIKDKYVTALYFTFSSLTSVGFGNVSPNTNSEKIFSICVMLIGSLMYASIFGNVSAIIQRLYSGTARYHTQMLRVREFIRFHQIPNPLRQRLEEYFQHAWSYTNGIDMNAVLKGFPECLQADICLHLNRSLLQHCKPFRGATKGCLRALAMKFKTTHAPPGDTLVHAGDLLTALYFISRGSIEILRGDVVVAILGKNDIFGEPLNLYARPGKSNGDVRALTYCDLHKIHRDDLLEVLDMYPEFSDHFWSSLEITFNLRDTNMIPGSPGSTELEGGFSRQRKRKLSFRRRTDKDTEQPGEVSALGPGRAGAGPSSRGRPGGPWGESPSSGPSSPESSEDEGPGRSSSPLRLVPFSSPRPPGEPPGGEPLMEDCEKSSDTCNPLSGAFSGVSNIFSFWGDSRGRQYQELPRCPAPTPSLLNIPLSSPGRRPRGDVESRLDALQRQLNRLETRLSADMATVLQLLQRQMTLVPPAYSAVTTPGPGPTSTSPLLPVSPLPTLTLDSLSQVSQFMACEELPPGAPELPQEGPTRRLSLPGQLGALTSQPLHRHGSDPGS
Put plainly: Action on hERG IKr current (patch-clamp, HEK293 cells overexpressing hERG). It counts as cell-based. Conditions: maximum tail current, 10 minutes after application, read-out: 50% hERG channel inhibitory activity. As for the experimental part: By using HEK293 cells overexpressing a human ether-a-go-go-related gene (hERG), the maximum tail current of the hERG IKr current induced by redepolarization pulse subsequent to depolarization pulse was measured by a patch-clamp method, and the percent change (suppression ratio) after 10 minutes from application of a test substance with respect to the maximum tail current before the application of the test substance was calculated (see, Biophysical Journal, vol. 74, pp. 230-241 (1998)).
(Block of hERG is tested as a sign of cardiac risk.)

≈ marks a conversion by molar mass, not a printed value.

For the molecule `CC1(O)c2cc(Cl)c(NC(=O)NCc3ccc(F)cc3)c(Cl)c2CC1(F)F` (stereo not shown) [Example 42, 1-(4,6-dichloro-2,2-difluoro-1-hydroxy-1-methyl-2,3-dihydro-1H-inden-5-yl)-3-(4-fluorobenzyl)urea], the EC50 on Human KCNQ2/3 channel came to 200 nM. Further, the IC20 in series [1] came to 100 nM. Also, the solubility at 5 h in series [2] was 87 µM (≈ 36.5 µg/mL). In series [3], the Residual ratio amounted to 90%. Besides, the IC50 on hERG IKr current is > 10000 nM.
The like results for `O=C(NCc1ccc(F)cc1)Nc1c(Cl)cc2c(c1Cl)CCC2(O)C(F)(F)F` (stereo not shown) [Example 12, 1-[4,6-dichloro-1-hydroxy-1-(trifluoromethyl)-2,3-dihydro-1H-inden-5-yl]-3-(4-fluorobenzyl)urea] were, in that order, 5 nM, 10 nM, 82 µM (≈ 35.9 µg/mL), 94% and > 10000 nM.
Regarding `CC1(O)CCc2c1cc(Cl)c(NC(=O)NCc1ccc(C(F)(F)F)cn1)c2Cl` (single isomer, unassigned) [Example 4(4), 1-(4,6-dichloro-1-hydroxy-1-methyl-2,3-dihydro-1H-inden-5-yl)-3-{[5-(trifluoromethyl)-2-pyridinyl]methyl}urea], the EC50 at Human KCNQ2/3 channel worked out at 300 nM. Further, in series [3], the Residual ratio came to 98%. Also, the IC50 on hERG IKr current is > 10000 nM.
`O=C(NCc1ccc(C(F)(F)F)cn1)Nc1c(Cl)cc2c(c1Cl)CCC2(O)C(F)(F)F` (stereo not shown) [Example 12(4), 1-[4,6-dichloro-1-hydroxy-1-(trifluoromethyl)-2,3-dihydro-1H-inden-5-yl]-3-{[5-(trifluoromethyl)-2 pyridinyl]methyl}urea]: the EC50 at Human KCNQ2/3 channel is 2 nM. In series [1], the IC20 is 10 nM. Moreover, the concentration in solution in series [2] (solubility at 5 h) came to 87 µM (≈ 42.5 µg/mL). Further, in series [3], the Residual ratio turned out to be 77%.
For the molecule `C[C@@H](NC(=O)Nc1c(Cl)cc2c(c1Cl)CCC2(O)C(F)(F)F)c1ccc(F)cc1` (stereo partly drawn) [Example 12(5), 1-[4,6-dichloro-1-hydroxy-1-(trifluoromethyl)-2,3-dihydro-H-inden-5-yl]-3-[(1R)-1-(4-fluorophenyl)ethyl]urea], the IC20 in series [1] is 30 nM. For the same molecule, the IC50 at hERG IKr current is > 10000 nM.
